Assay results from the supplement of paper PMC9663587.

Columns and labels:
Test in all cases: area over the GR curve, 72 h; higher = more effect;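 note: Dye Drop or Deep Dye Drop imaging of viable cells in 384-well plates (Hoechst nuclei, LIVE/DEAD dye), nine half-log doses, GR normalized to DMSO controls and time-zero plates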
SKBR3 = tested on: SKBR3
184A1 = tested on: 184A1
HCC1419 = tested on: HCC1419
HS578T = tested on: HS578T
T47D = tested on: T47D
SUM190PT = tested on: SUM190PT
MDAMB231 = tested on: MDAMB231
CAL120 = tested on: CAL120
HCC1806 = tested on: HCC1806
SUM185PE = tested on: SUM185PE
SUM1315 = tested on: SUM1315

Row | Compound | area over the GR curve (SKBR3) | area over the GR curve (184A1) | area over the GR curve (HCC1419) | area over the GR curve (HS578T) | area over the GR curve (T47D) | area over the GR curve (SUM190PT) | area over the GR curve (MDAMB231) | area over the GR curve (CAL120) | area over the GR curve (HCC1806) | area over the GR curve (SUM185PE) | area over the GR curve (SUM1315)
1 | CC(C)n1nc(-c2ccc3oc(N)nc3c2)c2c(N)ncnc21 [INK128/MLN0128] (max 3.162 µM) | 0.971 GR | 0.581 GR | 0.763 GR | 0.623 GR | 0.689 GR | 0.791 GR | 0.486 GR | 0.602 GR | 0.39 GR | 0.609 GR | 0.647 GR
2 | CC(C)NC[C@@H](C(=O)N1CCN(c2ncnc3c2[C@H](C)C[C@H]3O)CC1)c1ccc(Cl)cc1 [Ipatasertib/GDC0068] (max 10 µM) | 0.152 GR | 0.12 GR | 0.0911 GR | 0.246 GR | 0.428 GR | 0.0489 GR | 0.0065 GR | 0.13 GR | 0.0145 GR | 0.155 GR | 0.124 GR
3 | CN(C)C(=O)c1cc2cnc(Nc3ccc(N4CCNCC4)cn3)nc2n1C1CCCC1 [LEE011/Ribociclib] (max 10 µM) | 0.34 GR | 0.449 GR | 0.293 GR | 0.351 GR | 0.668 GR | 0.576 GR | 0.365 GR | 0.265 GR | 0.141 GR | 0.101 GR | 0.35 GR
4 | CCNC(=O)c1noc(-c2cc(C(C)C)c(O)cc2O)c1-c1ccc(CN2CCOCC2)cc1 [Luminespib/NVP-AUY922] (max 1 µM) | 0.714 GR | 0.539 GR | 0.641 GR | 0.67 GR | 0.51 GR | 0.728 GR | 0.645 GR | 0.693 GR | 0.539 GR | 0.673 GR | 0.606 GR
5 | CCOc1cc2ncc(C#N)c(Nc3ccc(OCc4ccccn4)c(Cl)c3)c2cc1NC(=O)/C=C/CN(C)C [Neratinib/HKI272] (max 3.162 µM) | 0.891 GR | 0.421 GR | 0.993 GR | 0.202 GR | 0.274 GR | 0.0652 GR | 0.105 GR | 0.224 GR | 0.191 GR | 0.255 GR | 0.364 GR
6 | O=C(c1cc(Cc2n[nH]c(=O)c3ccccc23)ccc1F)N1CCN(C(=O)C2CC2)CC1 [Olaparib/AZD2281] (max 10 µM) | 0.04 GR | 0.0908 GR | 0.018 GR | 0.0997 GR | 0.0229 GR | 0.0197 GR | 0.0581 GR | 0.143 GR | 0.0953 GR | -0.0156 GR | 0.245 GR
7 | CC(=O)O[C@H]1C(=O)[C@@]2(C)[C@H]([C@H](OC(=O)c3ccccc3)[C@]3(O)C[C@H](OC(=O)[C@H](O)[C@@H](NC(=O)c4ccccc4)c4ccccc4)C(C)=C1C3(C)C)[C@]1(OC(C)=O)CO[C@@H]1C[C@@H]2O [Paclitaxel] (max 1 µM) | 0.89 GR | 0.75 GR | 0.47 GR | 0.954 GR | 0.661 GR | 0.872 GR | 0.702 GR | 0.746 GR | 0.838 GR | 0.479 GR | 0.793 GR
8 | CS(=O)(=O)N1CCN(Cc2cc3nc(-c4cccc5[nH]ncc45)nc(N4CCOCC4)c3s2)CC1 [Pictilisib/GDC0941] (max 10 µM) | 0.512 GR | 0.276 GR | 0.512 GR | 0.311 GR | 0.477 GR | 0.143 GR | 0.206 GR | 0.255 GR | 0.118 GR | 0.458 GR | 0.371 GR
9 | O=C1NC(=NCc2cccs2)SC1=Cc1ccc2ncccc2c1 [R0-3306] (max 10 µM) | 0.163 GR | 0.207 GR | -0.0238 GR | 0.139 GR | 0.14 GR | 0.176 GR | 0.0059 GR | 0.0133 GR | 0.085 GR | 0.0686 GR | 0.195 GR
10 | CNCc1ccc(-c2[nH]c3cc(F)cc4c3c2CCNC4=O)cc1 [Rucaparib] (max 10 µM) | 0.119 GR | 0.0986 GR | 0.0527 GR | 0.0974 GR | 0.0635 GR | 0.0862 GR | 0.0793 GR | 0.125 GR | 0.117 GR | 0.108 GR | 0.371 GR
11 | CC1(N)CCN(c2cnc(-c3cccc(Cl)c3Cl)c(N)n2)CC1 [SHP099] (max 10 µM) | 0.0253 GR | 0.118 GR | 0.0437 GR | 0.142 GR | 0.0099 GR | 0.0478 GR | -0.0083 GR | -0.0004 GR | -0.0155 GR | 0.176 GR | 0.121 GR
12 | CN1CCN(CCOc2cc(OC3CCOCC3)c3c(Nc4c(Cl)ccc5c4OCO5)ncnc3c2)CC1 [Saracatinib/AZD0530] (max 10 µM) | -0.0324 GR | 0.0722 GR | 0.264 GR | 0.159 GR | 0.171 GR | 0.181 GR | 0.269 GR | 0.173 GR | 0.233 GR | 0.279 GR | 0.244 GR
13 | Cc1cc(C(C)Nc2ccccc2)c2nc(N3CCOCC3)cc(=O)n2c1 (stereo not drawn) [TGX221] (max 10 µM) | -0.0125 GR | 0.0024 GR | -0.0488 GR | 0.0668 GR | -0.0193 GR | -0.0619 GR | 0.0141 GR | -0.0168 GR | -0.02 GR | 0.163 GR | 0.136 GR
14 | CN(C)C/C=C/C(=O)Nc1ccc(C(=O)Nc2cccc(Nc3ncc(Cl)c(-c4c[nH]c5ccccc45)n3)c2)cc1 [THZ1] (max 1 µM) | 0.673 GR | 0.528 GR | 0.369 GR | 0.518 GR | 0.446 GR | 0.767 GR | 0.356 GR | 0.337 GR | 0.367 GR | 0.484 GR | 0.229 GR
15 | CN(C)C/C=C/C(=O)Nc1ccc(C(=O)N2CCC[C@@H](Nc3ncc(Cl)c(-c4c[nH]c5ccccc45)n3)C2)cc1 [THZ531] (max 1 µM) | 0.545 GR | 0.214 GR | 0.21 GR | 0.377 GR | 0.229 GR | 0.501 GR | 0.205 GR | 0.21 GR | 0.134 GR | 0.231 GR | 0.148 GR
16 | CN(C)C/C=C/C(=O)Nc1ccc(C(=O)Nc2cccc(Nc3cc(-c4c[nH]c5ccccc45)ncn3)c2)cc1 [THZ-P1-2] (max 10 µM) | 0.154 GR | 0.351 GR | 0.019 GR | -0.017 GR | 0.353 GR | 0.478 GR | 0.163 GR | 0.124 GR | 0.199 GR | 0.14 GR | 0.0029 GR
17 | Cc1nc(-c2cn3c(n2)-c2ccc(-c4cnn(C(C)(C)C(N)=O)c4)cc2OCC3)n(C(C)C)n1 [Taselisib/GDC0032] (max 10 µM) | 0.807 GR | 0.457 GR | 0.852 GR | 0.374 GR | 0.899 GR | 0.298 GR | 0.254 GR | 0.235 GR | 0.258 GR | 0.879 GR | 0.397 GR
18 | O=C1NC(=O)[C@@H](c2cn3c4c(cccc24)CCC3)[C@@H]1c1c[nH]c2ccccc12 [Tivantinib/ARQ197] (max 10 µM) | 0.479 GR | 0.582 GR | 0.238 GR | 0.437 GR | 0.365 GR | 0.637 GR | 0.323 GR | 0.465 GR | 0.446 GR | 0.239 GR | 0.475 GR
19 | Nc1ccc(-c2ccc3ncc4ccc(=O)n(-c5cccc(C(F)(F)F)c5)c4c3c2)cn1 [Torin2] (max 1 µM) | 0.734 GR | 0.46 GR | 0.634 GR | 0.566 GR | 0.522 GR | 0.749 GR | 0.386 GR | 0.487 GR | 0.388 GR | 0.473 GR | 0.486 GR
20 | CC[C@@H]1C(=O)N(C)c2cnc(Nc3ccc(C(=O)N[C@H]4CC[C@H](N5CCN(CC6CC6)CC5)CC4)cc3OC)nc2N1C(C)C [Volasertib/BI6727] (max 1 µM) | 0.694 GR | 0.54 GR | 0.325 GR | 0.82 GR | 0.385 GR | 0.621 GR | 0.584 GR | 0.676 GR | 0.726 GR | 0.286 GR | 0.664 GR
21 | O=C(CCCCCCC(=O)Nc1ccccc1)NO [Vorinostat] (max 10 µM) | 0.345 GR | 0.188 GR | 0.148 GR | 0.269 GR | 0.146 GR | 0.426 GR | 0.282 GR | 0.241 GR | 0.24 GR | 0.0835 GR | 0.166 GR
22 | C=CC(=O)Nc1ccc(C(=O)Nc2[nH]nc3c2CN(C(=O)N[C@H](CN(C)C)c2ccccc2)C3(C)C)cc1 [YKL-5-124] (max 10 µM) | 0.965 GR | 0.929 GR | 1.01 GR | 0.815 GR | 0.872 GR | 0.831 GR | 0.878 GR | 0.591 GR | 1.01 GR | 0.518 GR | 0.703 GR
23 | CN1CCN(C(=O)c2ccc3cc(CCNc4ncnc5ccc(C#N)cc45)ccc3c2)CC1 [senexin b] (max 10 µM) | 0.172 GR | 0.107 GR | 0.13 GR | 0.139 GR | 0.322 GR | 0.435 GR | 0.0788 GR | 0.131 GR | 0.0969 GR | 0.293 GR | 0.175 GR
